Consider ten molecules from patent EP1188765B1, “Medical Use of Mechanism-oriented inhibitors of dipeptidyl peptidase I” (Probiodrug AG, priority 1998, dated 2000).

Entries after “also recorded” stand apart in the source; their conditions may differ.

The target of one assay is T1, DP Ibovine (Bos taurus, UniProt Q3ZCJ8).
T1 construct: Inaktivierung der DP I aus Rinder- bzw. humaner Niere mittels H-Gly-Phe-NHO-Bz; from tissue; host or cells: bovine kidney
Kind of assay: Inactivation of DP I from bovine kidney (second-order rate constants). It is filed as biochemical, Rinder.

The target in a further assay is T2, DP Ihum (Homo sapiens, UniProt P53634).
T2 construct: DP I (humane Niere); from tissue; host or cells: human kidney
T2 sequence (P53634 231-394 limits assumed): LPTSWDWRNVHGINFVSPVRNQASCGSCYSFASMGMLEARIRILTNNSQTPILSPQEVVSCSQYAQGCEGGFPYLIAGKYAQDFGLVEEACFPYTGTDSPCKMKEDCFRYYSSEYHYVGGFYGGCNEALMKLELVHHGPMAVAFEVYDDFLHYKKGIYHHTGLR
T2 sequence (P53634 25-143 limits assumed): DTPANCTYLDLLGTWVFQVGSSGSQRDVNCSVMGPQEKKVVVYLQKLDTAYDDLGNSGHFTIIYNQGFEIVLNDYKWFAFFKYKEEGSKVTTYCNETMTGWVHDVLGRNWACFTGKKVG
T2 sequence (P53634 395-463 limits assumed): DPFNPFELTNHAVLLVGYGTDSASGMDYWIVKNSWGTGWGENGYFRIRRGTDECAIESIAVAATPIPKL
As to the kind of experiment: Inactivation of DP I from human kidney (second-order rate constants). It counts as biochemical.

Assay [1] relates to DP I. Particulars: literature (Nikawa et al., 1992); cited from earlier work.
The target of the next assay is T3, Cathepsin B (hum. Leber) (Homo sapiens, UniProt P07858).
T3 construct: Cathepsin B (hum. Leber); from tissue; host or cells: human liver
As to the kind of experiment: Inactivation of cathepsin B (second-order rate constants). It counts as biochemical. Particulars: Table 3.

Assay [2] has as its target DP I (Homo sapiens, UniProt P53634). As to the kind of experiment: Protection of glucagon from degradation by DP I, MALDI-TOF mass spectra. It is filed as biochemical. Particulars: 0.14 mM Glukagon, 40 mM TRIS/HCl pH 7,6; enzyme 15 nM; inhibitor 300 nM, 5 min preincubation with DP I. From the text:
Schutz des Abbaus des Peptidhormons Glukagon durch Vorinkubation von DP I mit H-Gly-Phe-NHO-Bz
Abbildung 1: MALDI-TOF-Massenspektren von Reaktionslösungen, die Glukagon und DP I enthalten.

In the next assay the target is T4, Cathepsin L (hum. Leber) (Homo sapiens, UniProt P07711).
T4 construct: Cathepsin L (hum. Leber); from tissue; host or cells: human liver
T4 sequence (P07711 114-333): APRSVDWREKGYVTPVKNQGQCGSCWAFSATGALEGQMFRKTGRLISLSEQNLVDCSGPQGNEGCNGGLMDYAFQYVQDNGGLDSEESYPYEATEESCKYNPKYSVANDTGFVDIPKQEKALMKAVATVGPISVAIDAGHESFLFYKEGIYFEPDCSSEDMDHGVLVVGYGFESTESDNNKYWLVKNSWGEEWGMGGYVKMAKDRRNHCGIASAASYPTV
As to the kind of experiment: Inactivation of cathepsin L (second-order rate constants). It is filed as biochemical. Particulars: Table 3.

For assay [3], the system named is "DCE" (Dynorphin Converting Enzyme). Particulars: Demuth et al. 1991; cited from earlier work.
Where [4] appears, read: DP Ibovine, inhibitor concentration 1e^-4 M, Table 2.
[5] abbreviates: DP Ihum, inhibitor concentration 1e^-4 M, Table 2.
The mark [6] stands for this setting: DP Ibovine, inhibitor concentration 2e^-5 M, Table 2.
[7] abbreviates: DP Ihum, inhibitor concentration 2e^-5 M, Table 2.

T1 sequence (Q3ZCJ8 231-394 limits assumed): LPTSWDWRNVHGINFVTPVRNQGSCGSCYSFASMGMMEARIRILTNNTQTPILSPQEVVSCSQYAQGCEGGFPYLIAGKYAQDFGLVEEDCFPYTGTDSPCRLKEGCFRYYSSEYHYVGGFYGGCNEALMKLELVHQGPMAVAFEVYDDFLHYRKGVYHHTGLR
T1 sequence (Q3ZCJ8 25-143 limits assumed): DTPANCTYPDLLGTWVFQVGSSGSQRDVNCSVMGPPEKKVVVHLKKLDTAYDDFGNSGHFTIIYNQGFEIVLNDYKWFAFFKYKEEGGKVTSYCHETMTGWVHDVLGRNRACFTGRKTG
T1 sequence (Q3ZCJ8 395-463 limits assumed): as the sequence (P53634 395-463 limits assumed) above, with S22A, M26L, G38S, V61L counted along it
Sequence of DP I (Homo sapiens, UniProt P53634) (P53634 25-463): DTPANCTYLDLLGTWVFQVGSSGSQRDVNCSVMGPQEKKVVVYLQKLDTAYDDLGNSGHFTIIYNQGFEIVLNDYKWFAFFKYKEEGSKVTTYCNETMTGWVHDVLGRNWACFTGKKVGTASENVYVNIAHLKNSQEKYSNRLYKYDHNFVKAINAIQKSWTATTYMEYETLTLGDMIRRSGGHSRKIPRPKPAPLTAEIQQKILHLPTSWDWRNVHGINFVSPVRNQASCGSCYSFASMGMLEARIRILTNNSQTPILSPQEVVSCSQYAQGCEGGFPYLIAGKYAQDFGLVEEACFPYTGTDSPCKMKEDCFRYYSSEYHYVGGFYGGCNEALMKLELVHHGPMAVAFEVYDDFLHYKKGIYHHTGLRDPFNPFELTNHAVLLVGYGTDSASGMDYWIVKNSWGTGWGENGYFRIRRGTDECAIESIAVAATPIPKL

As for `C[C@H](NC(=O)OC(C)(C)C)C(=O)N[C@@H](C)C(=O)N[C@@H](C)C(=O)NOC(=O)c1ccccc1` [Boc-Ala-Ala-Ala-NHO-Bz], the kinact/Ki entry at DP Ibovine (setting [4]) and at DP Ihum (setting [5]) was “keine Hemmung (1e^-4)” throughout.
For the molecule `C[C@H](NC(=O)OC(C)(C)C)C(=O)N[C@@H](C)C(=O)NOC(=O)c1ccccc1` [Boc-Ala-Ala-NHO-Bz], the kinact/Ki entry on DP Ibovine (setting [4]) and at DP Ihum (setting [5]) was “keine Hemmung (1e^-4)” throughout.
Consider `C[C@H](NC(=O)OC(C)(C)C)C(=O)N1CCC[C@H]1C(=O)N[C@@H](Cc1ccccc1)C(=O)NOC(=O)c1ccccc1` [Boc-Ala-Pro-Phe-NHO-Bz], for which the kinact/Ki result on DP Ibovine (setting [4]) and at DP Ihum (setting [5]) was “keine Hemmung (1e^-4)” each time.
Regarding `CC(C)C[C@H](NC(=O)[C@H]1O[C@@H]1C(=O)O)C(=O)NCCCCN=C(N)N` [E-64], the “Inhibierung der DP I” value in the assay on DP I [1] is “nur schwach inhibiert; also recorded: inert”.
`NCC(=O)N[C@@H](Cc1ccccc1)C(=O)NOC(=O)c1ccccc1` [H-Gly-Phe-NHO-Bz, N-(H-Gly-Phe-),O-Benzoyl Hydroxylamin]: the kinact/KI came out at 87 M⁻¹ s⁻¹ at Cathepsin B (hum. Leber); 36700 M⁻¹ s⁻¹ on DP Ibovine (DP I from bovine kidney, Table 1); 37 M⁻¹ s⁻¹ on Cathepsin L (hum. Leber); 35000 M⁻¹ s⁻¹ at DP Ihum (DP I from human kidney, Table 1). In addition, the “Inhibierung des Glukagonabbaus durch DP I” value on DP I [2] is “Inhibierung des Glukagonabbaus”. The kinact/Ki on DP Ihum (DP I (humane Niere), Table 3) was 34979 s^-1M^-1.
With `N[C@@H](Cc1ccc(O)cc1)C(=O)NCC(=O)NOC(=O)c1ccccc1` [H-Tyr-Gly-NHO-Bz], the kinact/KI was found to be 3950 M⁻¹ s⁻¹ at DP Ibovine (DP Ibovine, inhibitor concentration 1e^-6 M, Table 2) and 3620 M⁻¹ s⁻¹ on DP Ihum (DP Ihum, inhibitor concentration 1e^-6 M, Table 2). In addition, the “Inhibierung des Enzyms DCE” value in assay [3] is on record as “nur schwach und reversibel inhibiert”.
For the molecule `CC(=O)N[C@@H](CC(C)C)C(=O)N[C@@H](CC(C)C)C(=O)N[C@H](C=O)CCCNC(=N)N` [Leupeptin], the “Inhibierung der DP I” value with DP I [1] is recorded as “nur schwach inhibiert”.
With `Cc1ccc(C(=O)ONC(=O)[C@H](Cc2ccccc2)NC(=O)CNC(=O)OCc2ccccc2)cc1` [Z-Gly-Phe-NHO-Bz-CH3], the kinact/Ki entry on DP Ibovine (setting [6]) and on DP Ihum (setting [7]) was “keine Hemmung (2e^-5)” in each case.
For `O=C(CNC(=O)OCc1ccccc1)N[C@@H](Cc1ccccc1)C(=O)NOC(=O)c1ccccc1` [Z-Gly-Phe-NHO-Bz], the kinact/KI on Cathepsin B (hum. Leber) is 418 M⁻¹ s⁻¹; at Cathepsin L (hum. Leber), 223 M⁻¹ s⁻¹. The kinact/Ki result at DP Ihum (DP I (humane Niere), Table 3) was “Keine Hemmung”.
As to H-Ile-Pro-NHO-Nb, the figures for the kinact/Ki at DP Ibovine (setting [6]) and on DP Ihum (setting [7]) were 149 M⁻¹ s⁻¹ and 208 M⁻¹ s⁻¹, respectively.

As a reminder, the kinact/KI is the maximal inactivation rate divided by the concentration that gives half of it.
